# Where a name gives a salt, the structure may show the parent alone. Read-outs that look alike come from different tables or passages of the source.
# Assays:
# [1] = tested on: P. aeruginosa PAO1; assay: Intrinsic MIC assay (CLSI broth microdilution); assay type: cell-based; details: Pseudomonas aeruginosa, read-out: Antibiotic Activity Against P. aeruginosa Intrinsic MIC
# Description: As used herein, the term “minimum inhibitory concentration (MIC)” refers to the lowest concentration of a compound (e.g., an antibiotic) that prevents visible growth of a bacterium. Assays for measuring the MIC of a compound are known in the art, for example, as described herein. As used herein, the term “intrinsic MIC” refers the MIC of a compound (e.g., an antibiotic) for the particular bacterial species that has not been pre-exposed to the compound. Intrinsic MIC Assays MIC assays were conducted in accordance with Clinical and Laboratory Standards Institute (CLSI) guidelines for broth microdilution. A 96-well plate containing cation-adjusted Mueller-Hinton (CAMH broth with 2-fold serial dilution of compounds was inoculated with log-phase bacterial at 5×10^5 CFU/mL. The final volume in each well was 100 μL. Each compound was tested in duplicate. The microtiter plates were incubated in an aerobic environment for 18 hours at 37° C. Then the bacterial growth was tested by reading the plate with a VersaMax plate reader (Molecular Devices, Inc.) at 600 nm. The MIC was defined as the lowest compound concentration that inhibited 90% of bacteria growth. The intrinsic MIC of the experimental EPIs was tested with the method described. […] The following Gram-negative bacterial strains were included in these assays: Pseudomonas aeruginosa PAO1
# [2] = tested on: P. aeruginosa PAO1; assay: MIC assay in the presence of a bacterial efflux pump inhibitor (EPI); assay type: cell-based, Pseudomonas aeruginosa
# Experimental: The ability of a compound to produce an antibiotic effect can be determined using a method as described in Example 42. […] MIC assays were conducted in accordance with Clinical and Laboratory Standards Institute (CLSI) guidelines for broth microdilution. A 96-well plate containing cation-adjusted Mueller-Hinton (CAMH broth with 2-fold serial dilution of compounds was inoculated with log-phase bacterial at 5×10^5 CFU/mL. The final volume in each well was 100 μL. Each compound was tested in duplicate. The microtiter plates were incubated in an aerobic environment for 18 hours at 37° C. Then the bacterial growth was tested by reading the plate with a VersaMax plate reader (Molecular Devices, Inc.) at 600 nm. The MIC was defined as the lowest compound concentration that inhibited 90% of bacteria growth. MIC Assays in the Presence of a Bacterial Efflux Inhibitor The EPI assay for the purposes of these studies represents a MIC assay in which the MIC of the antibiotic against the bacteria is tested in the presence of an experimental efflux pump inhibitor (EPI). The highest concentration of the EPI present in the assay typically is ½ of the intrinsic MIC of the compound. […] Using serial dilutions of the EPI, its enhancement of antibiotic activity was then evaluated. The relative EPI activity was decided by comparing the MIC of the antibiotic in the presence of the EPI compound with the intrinsic MIC of the antibiotic alone. For comparative purposes, we generally used EPIs at concentration of 12.5 and 6.25 μg/ml against varying concentration of our test antibiotic.
# [3] = tested on: E. coli 25922; assay: Intrinsic MIC assay (CLSI broth microdilution); assay type: cell-based, Escherichia coli; details: read-out: Antibiotic Activity Against E. coli Intrinsic MIC
# Description: As used herein, the term “minimum inhibitory concentration (MIC)” refers to the lowest concentration of a compound (e.g., an antibiotic) that prevents visible growth of a bacterium. Assays for measuring the MIC of a compound are known in the art, for example, as described herein. As used herein, the term “intrinsic MIC” refers the MIC of a compound (e.g., an antibiotic) for the particular bacterial species that has not been pre-exposed to the compound. Intrinsic MIC Assays MIC assays were conducted in accordance with Clinical and Laboratory Standards Institute (CLSI) guidelines for broth microdilution. A 96-well plate containing cation-adjusted Mueller-Hinton (CAMH broth with 2-fold serial dilution of compounds was inoculated with log-phase bacterial at 5×10^5 CFU/mL. The final volume in each well was 100 μL. Each compound was tested in duplicate. The microtiter plates were incubated in an aerobic environment for 18 hours at 37° C. Then the bacterial growth was tested by reading the plate with a VersaMax plate reader (Molecular Devices, Inc.) at 600 nm. The MIC was defined as the lowest compound concentration that inhibited 90% of bacteria growth. The intrinsic MIC of the experimental EPIs was tested with the method described. […] The following Gram-negative bacterial strains were included in these assays: Escherichia coli ATCC 25922
# [4] = 18 h, P. aeruginosa PAO1, compound alone, without EPI, MIC = lowest concentration inhibiting 90% of growth
# [5] = P. aeruginosa PAO1, fold enhancement with 12.5 ug/ml EPI
# [6] = P. aeruginosa PAO1, with 12.5 ug/ml of EPI (2S,4R)-4-(ammoniomethyl)-2-((6-(4-fluorophenyl)-1H-indole-2-carboxamido)methyl)pyrrolidin-1-ium
# [7] = Escherichia coli, 18 h, E. coli 25922, compound alone, without EPI
SMILES,"MIC [1, 4] [µg/mL]","Enhancement (intrinsic MIC versus MIC with EPI) [2, 5]","Antibiotic Activity Against P. aeruginosa MIC with EPI [2, 6] [µg/mL]","MIC [3, 7] [µg/mL]","MIC ([1]; PAO1, 18 h) [µg/mL]","MIC ([3]; Escherichia coli, 25922, 18 h) [µg/mL]",Antibiotic Activity Against P. aeruginosa MIC with EPI [2] [µg/mL],Enhancement (intrinsic MIC versus MIC with EPI) [2]
"CC1CCc2c([nH]c3ccc(Br)cc23)C1N (stereo not shown) [Example 23, 6-Bromo-2-methyl-2,3,4,9-tetrahydro-1H-carbazol-1-amine]",256,(16x),16,16,–,–,–,–
"CC1(C)CCC(N)c2[nH]c3ccc(Br)cc3c21 (stereo not shown) [Example 24, 6-Bromo-4,4-dimethyl-2,3,4,9-tetrahydro-1H-carbazol-1-amine]",–,(4x),16,–,64,16,–,–
"CC(C)C1CCC(N)c2[nH]c3ccc(Br)cc3c21.Cl (stereo not shown) [Example 25, 6-Bromo-4-isopropyl-2,3,4,9-tetrahydro-1H-carbazol-1-amine Hydrogen Chloride Salt]",–,–,–,–,64,8,16,(4x)
"CC1(C)Cc2c([nH]c3ccc(Br)cc23)C(N)C1 (stereo not shown) [Example 26, 6-Bromo-3,3-dimethyl-2,3,4,9-tetrahydro-1H-carbazol-1-amine]",64,(16x),4,32,–,–,–,–
"CCOC(=O)C1Cc2c([nH]c3ccc(Br)cc23)C(N)C1 (stereo not shown) [Example 27, Ethyl 1-amino-6-bromo-2,3,4,9-tetrahydro-1H-carbazole-3-carboxylate]",> 256,(>8x),32,16,–,–,–,–
"NC1CC(C(=O)O)Cc2c1[nH]c1ccc(Br)cc21 (stereo not shown) [Example 28, 1-Amino-6-bromo-2,3,4,9-tetrahydro-1H-carb azole-3-carboxylic Acid]",> 256,(>1x),256,> 256,–,–,–,–
"NC1CC(CO)Cc2c1[nH]c1ccc(Br)cc21 (stereo not shown) [Example 29, (1-Amino-6-bromo-2,3,4,9-tetrahydro-1H-carbazol-3-yl)methanol]",256,(8x),32,64,–,–,–,–
"CC(C)C1Cc2c([nH]c3ccc(Br)cc23)C(N)C1 (stereo not shown) [Example 30, 6-Bromo-3-isopropyl-2,3,4,9-tetrahydro-1H-carbazol-1-amine]",64,(8x),8,4,–,–,–,–
"NC1CC(CN2CCOCC2)Cc2c1[nH]c1ccc(Br)cc21 (stereo not shown) [Example 31, 6-Bromo-3-(morpholinomethyl)-2,3,4,9-tetrahydro-1H-carbazol-1-amine]",256,(4x),64,64,–,–,–,–
"NCCNC(=O)C1Cc2c([nH]c3ccc(Br)cc23)C(N)C1 (stereo not shown) [Example 32, 1-Amino-N-(2-aminoethyl)-6-bromo-2,3,4,9-tetrahydro-1H-carb azole-3-carboxamide]",> 256,(1x),>256,> 256,–,–,–,–
"CN(C)C(=O)C1Cc2c([nH]c3ccc(Br)cc23)C(N)C1 (stereo not shown) [Example 33, 1-Amino-6-bromo-N,N-dimethyl-2,3,4,9-tetrahydro-1H-carbazole-3-carboxamide]",> 256,(>2x),128,128,–,–,–,–
"Cl.NC(=O)C1Cc2c([nH]c3ccc(Br)cc23)C(N)C1 (stereo not shown) [Example 34, 1-Amino-6-bromo-2,3,4,9-tetrahydro-1H-carbazole-3-carboxamide Hydrogen Chloride Salt]",256,–,256,128,–,–,–,–
"NC1CC(c2ccccc2)Cc2c1[nH]c1ccc(Br)cc21 (stereo not shown) [Example 35, 6-Bromo-3-phenyl-2,3,4,9-tetrahydro-1H-carbazol-1-amine]",> 256,(>32x),8,8,–,–,–,–
"CC(C)(C)C1Cc2c([nH]c3ccc(Br)cc23)C(N)C1 (stereo not shown) [Example 36, 6-Bromo-3-(tert-butyl)-2,3,4,9-tetrahydro-1H-carbazol-1-amine]",> 256,(>32x),8,8,–,–,–,–
"CC(C)C1Cc2c([nH]c3ccc(Cl)c(Cl)c23)C(N)C1 (stereo not shown) [Example 37, 5,6-Dichloro-3-isopropyl-2,3,4,9-tetrahydro-1H-carbazol-1-amine]",128,(32x),4,4,–,–,–,–
"CC(C)C1Cc2c([nH]c3cc(Cl)c(Cl)cc23)C(N)C1 (stereo not shown) [Example 38, 6,7-Dichloro-3-isopropyl-2,3,4,9-tetrahydro-1H-carbazol-1-amine]",> 256,(>64x),4,4,–,–,–,–
"NCCNC1CCCc2c1[nH]c1ccc(Br)cc21 (stereo not shown) [Example 39, N^1-(6-bromo-2,3,4,9-tetrahydro-1H-carbazol-1-yl)ethane-1,2-diamine]",32,–,16,16,–,–,–,–
"CNCC1Cc2c([nH]c3ccc(Br)cc23)C(N)C1 (stereo not shown) [Example 41, 6-Bromo-3-((methylamino)methyl)-2,3,4,9-tetrahydro-1H-carbazol-1-amine Hydrogen Chloride Salt]",128,(4x),64,256,–,–,–,–
